# Test results from ChEMBL document CHEMBL5518174 (Eur J Med Chem, 2024).
# Active and inactive are the calls of the source. The calls are words filed in the database; no cut-off is given here.
# Experiments:
# [1] = Downregulation of HDAC2 protein expression in human NCI-H1975 cells assessed as fold change at 0.1 uM incubated for 24 hrs by immunoblotting analysis (reference value: 1); type: functional
# [2] = Downregulation of HDAC1 protein expression in human NCI-H1975 cells assessed as fold change at 0.1 uM incubated for 24 hrs by immunoblotting analysis (reference value: 1); type: functional
# [3] = Effect on HDAC4 protein expression in human MDA-MB-231 cells assessed as fold change at 0.1 uM incubated for 24 hrs by immunoblotting analysis (reference value: 1); type: functional
# NCI-H1975 [4] = assay: Antitumor activity against human NCI-H1975 cells xenografted in athymic nude BALB/c mouse assessed as reduction in tumor growth at 6 mg/kg, ip administered 5 times a week for 3 weeks by vernier caliper method; type: functional, organism-based
# MDA-MB-231 = assay: Cytotoxicity against human MDA-MB-231 cells assessed as inhibition of cell growth incubated for 48 hrs by Celltiter-glo assay; type: functional, cell-based; details: MDA-MB-231, 48 h
# [5] = Downregulation of HDAC10 protein expression in human MDA-MB-231 cells assessed as fold change at 0.1 uM incubated for 24 hrs by immunoblotting analysis (reference value: 1); type: functional
# [6] = Upregulation of acetylated H4 protein expression in human MDA-MB-231 cells assessed as fold change at 0.05 uM incubated for 24 hrs by immunoblotting analysis (reference value: 1); type: functional
# Histone deacetylase 4 = Histone deacetylase 4 (Homo sapiens, UniProt P56524); assay: Inhibition of recombinant human HDAC4 using acetylated luminogenic substrate incubated for 10 mins by ultra-glo recombinant firefly luciferase based luminescence assay
# [7] = Downregulation of HDAC3 protein expression in human NCI-H1975 cells assessed as fold change at 0.05 uM incubated for 24 hrs by immunoblotting analysis (reference value: 1); type: functional
# [8] = Effect on HDAC8 protein expression in human MDA-MB-231 cells assessed as fold change at 0.05 uM incubated for 24 hrs by immunoblotting analysis (reference value: 1); type: functional
# Histone deacetylase 7 = biological target: T1, Histone deacetylase 7 (Homo sapiens, UniProt Q8WUI4); assay: Inhibition of recombinant human HDAC7 using acetylated luminogenic substrate incubated for 10 mins by ultra-glo recombinant firefly luciferase based luminescence assay
# T1 sequence (Q8WUI4 whole entry): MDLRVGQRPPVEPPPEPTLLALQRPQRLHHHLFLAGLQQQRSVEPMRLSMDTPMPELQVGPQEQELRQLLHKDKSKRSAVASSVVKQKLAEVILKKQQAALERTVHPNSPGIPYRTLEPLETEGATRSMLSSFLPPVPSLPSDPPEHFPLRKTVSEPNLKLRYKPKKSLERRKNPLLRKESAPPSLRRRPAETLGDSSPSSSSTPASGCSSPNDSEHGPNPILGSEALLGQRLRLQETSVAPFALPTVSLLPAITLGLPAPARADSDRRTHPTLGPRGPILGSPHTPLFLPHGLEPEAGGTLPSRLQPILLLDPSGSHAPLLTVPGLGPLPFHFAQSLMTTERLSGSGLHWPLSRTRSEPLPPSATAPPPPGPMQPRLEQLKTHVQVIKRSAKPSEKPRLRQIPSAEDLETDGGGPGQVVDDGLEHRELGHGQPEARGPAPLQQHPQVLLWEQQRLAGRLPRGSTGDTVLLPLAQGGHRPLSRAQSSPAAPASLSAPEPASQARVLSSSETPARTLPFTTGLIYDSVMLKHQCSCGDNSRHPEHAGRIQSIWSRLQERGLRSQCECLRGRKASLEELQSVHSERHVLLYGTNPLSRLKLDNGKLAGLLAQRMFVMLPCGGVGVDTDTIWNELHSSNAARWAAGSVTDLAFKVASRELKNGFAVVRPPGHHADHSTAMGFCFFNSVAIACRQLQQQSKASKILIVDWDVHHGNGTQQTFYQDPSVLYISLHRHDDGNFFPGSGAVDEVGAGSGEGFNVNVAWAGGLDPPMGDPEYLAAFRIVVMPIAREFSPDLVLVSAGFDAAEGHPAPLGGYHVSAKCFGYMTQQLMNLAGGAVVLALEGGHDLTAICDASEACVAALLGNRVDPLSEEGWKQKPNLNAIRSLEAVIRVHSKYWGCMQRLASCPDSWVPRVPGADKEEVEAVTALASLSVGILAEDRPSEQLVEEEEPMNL
# [9] = Downregulation of HDAC3 protein expression in human NCI-H1975 cells assessed as fold change at 0.1 uM incubated for 24 hrs by immunoblotting analysis (reference value: 1); type: functional
# Histone deacetylase 5 = Histone deacetylase 5 (Homo sapiens, UniProt Q9UQL6); assay: Inhibition of recombinant human HDAC5 using acetylated luminogenic substrate incubated for 10 mins by ultra-glo recombinant firefly luciferase based luminescence assay
# [10] = Toxicity in athymic nude BALB/c mouse xenografted with human NCI-H1975 cells assessed as effect on AST level at 6 mg/kg, ip administered 5 times a week for 3 weeks and measured on day 22; type: organism-based; details: in vivo, 528 h, time 22 day
# [11] = Downregulation of HDAC11 protein expression in human MDA-MB-231 cells assessed as fold change at 0.1 uM incubated for 24 hrs by immunoblotting analysis (reference value: 1); type: functional
# [12] = Effect on HDAC6 protein expression in human MDA-MB-231 cells assessed as fold change at 0.1 uM incubated for 24 hrs by immunoblotting analysis (reference value: 1); type: functional
# [13] = Downregulation of HDAC3 protein expression in human MDA-MB-231 cells assessed as fold change at 0.05 uM incubated for 24 hrs by immunoblotting analysis (reference value: 1); type: functional
# [14] = Effect on HDAC11 protein expression in human NCI-H1975 cells assessed as fold change at 0.05 uM incubated for 24 hrs by immunoblotting analysis (reference value: 1); type: functional
# [15] = Downregulation of HDAC6 protein expression in human NCI-H1975 cells assessed as fold change at 0.1 uM incubated for 24 hrs by immunoblotting analysis (reference value: 1); type: functional
# [16] = Effect on HDAC8 protein expression in human MDA-MB-231 cells assessed as fold change at 0.1 uM incubated for 24 hrs by immunoblotting analysis (reference value: 1); type: functional
# NCI-H1975 [17] = assay: cells; type: functional, cell-based; details: Homo sapiens, NCI-H1975, 48 h
# Description: Cytotoxicity against human NCI-H1975 cells assessed as inhibition of cell growth incubated for 48 hrs by Celltiter-glo assay
# [18] = Downregulation of HDAC9 protein expression in human NCI-H1975 cells assessed as fold change at 0.05 uM incubated for 24 hrs by immunoblotting analysis (reference value: 1); type: functional
# [19] = Effect on HDAC1 protein expression in human NCI-H1975 cells assessed as fold change at 0.05 uM incubated for 24 hrs by immunoblotting analysis (reference value: 1); type: functional
# NCI-H1975 [20] = assay: Antitumor activity against human NCI-H1975 cells xenografted in athymic nude BALB/c mouse assessed as cell apoptosis in tumor region at 6 mg/kg, ip administered 5 times a week for 3 weeks and measured on day 22 by TUNEL assay; type: functional, organism-based; details: time 22.0 day
# Sequence of Histone deacetylase 5 (Q9UQL6 whole entry): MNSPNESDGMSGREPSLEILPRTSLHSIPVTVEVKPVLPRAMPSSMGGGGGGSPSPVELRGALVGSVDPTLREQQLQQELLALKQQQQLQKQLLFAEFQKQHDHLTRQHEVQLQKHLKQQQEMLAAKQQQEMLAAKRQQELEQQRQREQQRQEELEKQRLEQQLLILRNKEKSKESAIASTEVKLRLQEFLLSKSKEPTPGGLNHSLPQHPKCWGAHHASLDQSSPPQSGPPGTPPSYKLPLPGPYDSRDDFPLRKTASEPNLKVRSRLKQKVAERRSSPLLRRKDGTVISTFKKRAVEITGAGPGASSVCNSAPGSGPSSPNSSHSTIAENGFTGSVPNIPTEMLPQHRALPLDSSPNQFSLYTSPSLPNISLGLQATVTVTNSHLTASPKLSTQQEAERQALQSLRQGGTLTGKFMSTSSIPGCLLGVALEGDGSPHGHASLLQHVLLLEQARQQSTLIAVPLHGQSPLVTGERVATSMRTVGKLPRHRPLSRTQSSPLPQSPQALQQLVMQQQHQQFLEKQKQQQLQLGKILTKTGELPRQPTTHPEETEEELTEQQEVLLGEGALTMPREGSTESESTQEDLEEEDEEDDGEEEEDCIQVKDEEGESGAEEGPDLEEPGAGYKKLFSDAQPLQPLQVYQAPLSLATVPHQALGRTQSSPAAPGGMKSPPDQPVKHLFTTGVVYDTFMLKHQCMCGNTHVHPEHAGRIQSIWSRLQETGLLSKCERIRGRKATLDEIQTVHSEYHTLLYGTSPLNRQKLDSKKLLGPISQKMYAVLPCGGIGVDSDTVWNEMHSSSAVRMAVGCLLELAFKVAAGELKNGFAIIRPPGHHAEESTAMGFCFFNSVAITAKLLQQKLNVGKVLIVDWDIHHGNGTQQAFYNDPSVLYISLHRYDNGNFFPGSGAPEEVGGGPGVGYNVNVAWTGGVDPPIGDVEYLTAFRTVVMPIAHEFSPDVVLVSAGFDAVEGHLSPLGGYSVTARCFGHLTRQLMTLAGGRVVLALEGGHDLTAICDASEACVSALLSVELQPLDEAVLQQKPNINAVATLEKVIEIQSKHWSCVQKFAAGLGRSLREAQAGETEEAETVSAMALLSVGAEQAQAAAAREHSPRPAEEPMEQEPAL
# Sequence of Histone deacetylase 4 (P56524 whole entry): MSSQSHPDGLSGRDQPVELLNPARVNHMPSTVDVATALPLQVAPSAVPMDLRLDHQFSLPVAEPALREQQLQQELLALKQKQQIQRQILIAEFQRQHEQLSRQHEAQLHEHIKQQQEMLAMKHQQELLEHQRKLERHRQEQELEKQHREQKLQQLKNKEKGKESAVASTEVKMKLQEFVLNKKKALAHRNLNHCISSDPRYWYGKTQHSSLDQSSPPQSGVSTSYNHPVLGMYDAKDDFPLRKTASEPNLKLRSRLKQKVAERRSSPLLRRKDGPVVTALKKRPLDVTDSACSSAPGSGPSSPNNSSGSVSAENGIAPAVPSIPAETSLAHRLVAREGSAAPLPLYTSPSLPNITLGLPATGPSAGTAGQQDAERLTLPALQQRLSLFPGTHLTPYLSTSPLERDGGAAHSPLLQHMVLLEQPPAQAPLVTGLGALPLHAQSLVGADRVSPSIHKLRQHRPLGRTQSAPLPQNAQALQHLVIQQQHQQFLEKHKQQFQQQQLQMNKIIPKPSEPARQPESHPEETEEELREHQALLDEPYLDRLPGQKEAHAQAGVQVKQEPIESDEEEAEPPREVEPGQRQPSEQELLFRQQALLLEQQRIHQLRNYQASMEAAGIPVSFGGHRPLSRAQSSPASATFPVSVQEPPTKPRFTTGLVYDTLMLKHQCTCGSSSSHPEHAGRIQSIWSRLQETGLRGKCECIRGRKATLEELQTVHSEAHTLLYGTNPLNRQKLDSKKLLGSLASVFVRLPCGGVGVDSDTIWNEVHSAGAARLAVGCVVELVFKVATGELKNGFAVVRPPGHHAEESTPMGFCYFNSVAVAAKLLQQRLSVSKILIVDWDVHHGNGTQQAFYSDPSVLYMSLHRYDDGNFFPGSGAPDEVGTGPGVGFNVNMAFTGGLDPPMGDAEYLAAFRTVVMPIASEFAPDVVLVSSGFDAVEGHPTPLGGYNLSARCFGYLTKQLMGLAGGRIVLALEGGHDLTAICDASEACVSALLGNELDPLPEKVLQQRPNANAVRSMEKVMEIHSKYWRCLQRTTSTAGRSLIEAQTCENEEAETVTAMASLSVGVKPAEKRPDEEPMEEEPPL
smiles,measurement,setting,value
CCOc1ccc(-c2nc(C(=O)NCc3ccc(C(=O)NO)cc3)c3[nH]c(=O)n(-c4cccnc4OC)c3n2)cn1,fold change (FC),[1],0.69
same,fold change (FC),[2],0.95
same,fold change (FC),[3],1.01
same,Activity,NCI-H1975 [4],Active
same,IC50,MDA-MB-231,510 nM
same,fold change (FC),[5],0.88
same,fold change (FC),[6],1.74
same,IC50,Histone deacetylase 4,> 1000 nM
same,fold change (FC),[7],0.82
same,fold change (FC),[8],1.7
same,IC50,Histone deacetylase 7,> 1000 nM
same,fold change (FC),[9],0.37
same,IC50,Histone deacetylase 5,> 1000 nM
same,Activity,[10],Non-Toxic
same,fold change (FC),[11],0.2
same,fold change (FC),[12],1.17
same,fold change (FC),[13],0.82
same,fold change (FC),[14],1.15
same,fold change (FC),[15],0.41
same,fold change (FC),[16],1.08
same,IC50,NCI-H1975 [17],1200 nM
same,fold change (FC),[18],0.5
same,fold change (FC),[19],1.44
same,Activity,NCI-H1975 [20],Active
